US10582709B2, “Butyrolactones as herbicides” (FMC Corporation, priority 2015, dated 2020)

Key:
Format in all cases: in vivo
[1] = tested on: foxtail, giant (giant foxtail, Setaria faberii); assay: Test A postemergence, giant foxtail; settings: visual rating after approx. 10 d, 0 to 100 scale, 0 no effect, 100 complete control
Description: (§1) Seeds of plant species selected from barnyardgrass (Echinochloa crus-galli), crabgrass (large crabgrass, Digitaria sanguinalis), kochia (Kochia scoparia), ragweed (common ragweed, Ambrosia elatior), morningglory (Ipomoea spp.), velvetleaf (Abutilon theophrasti), ryegrass, Italian (Italian ryegrass, Lolium multiflorum), foxtail, giant (giant foxtail, Setaria faberii), wheat (Triticum aestivum), corn (Zea mays), and pigweed (Amaranthus retroflexus), were planted into a blend of loam soil and sand and treated preemergence with a directed soil spray using test chemicals formulated in a non-phytotoxic solvent mixture which included a surfactant. At the same time, plants selected from these crop and weed species and also blackgrass (Alopecurus myosuroides), and galium (catchweed bedstraw, Galium aparine), were planted in pots containing the same blend of loam soil and sand and treated with postemergence applications of test chemicals formulated in the same manner. Plants ranged in height from 2 to 10 cm and were in the one- to two-leaf stage for the postemergence treatment. Treated plants and untreated controls were maintained in a greenhouse for approximately 10 d, after which time all treated plants were compared to untreated controls and visually evaluated for injury. Plant response ratings, summarized in Table A, are based on a 0 to 100 scale where 0 is no effect and 100 is complete control. A dash (-) response means no test result.

[2] = tested on: sedge, umbrella (small-flower umbrella sedge, Cyperus difformis); assay: Test B flooded paddy test, umbrella sedge; settings: applied to paddy water at 2-leaf stage, 13 to 15 d, scale 0 no effect to 100 complete control
Description: (§2) Plant species in the flooded paddy test selected from rice (Oryza sativa), sedge, umbrella (small-flower umbrella sedge, Cyperus difformis), ducksalad (Heteranthera limosa), and barnyardgrass (Echinochloa crus-galli) were grown to the 2-leaf stage for testing. At time of treatment, test pots were flooded to 3 cm above the soil surface, treated by application of test compounds directly to the paddy water, and then maintained at that water depth for the duration of the test. Treated plants and controls were maintained in a greenhouse for 13 to 15 d, after which time all species were compared to controls and visually evaluated. Plant response ratings, summarized in Table B, are based on a scale of 0 to 100 where 0 is no effect and 100 is complete control. A dash (-) response means no test result.

[3] = tested on: ragweed (common ragweed, Ambrosia elatior); assay: Test A postemergence, ragweed; settings: visual rating after approx. 10 d, 0 to 100 scale, 0 no effect, 100 complete control
Description: as §1

[4] = tested on: galium (catchweed bedstraw, Galium aparine); assay: Test A postemergence, galium; settings: visual rating after approx. 10 d, 0 to 100 scale, 0 no effect, 100 complete control
Description: as §1

[5] = tested on: rice (Oryza sativa); assay: Test B flooded paddy test, rice; settings: applied to paddy water at 2-leaf stage, 13 to 15 d, scale 0 no effect to 100 complete control
Description: as §2

[6] = tested on: pigweed (Amaranthus retroflexus); assay: Test A postemergence, pigweed; settings: visual rating after approx. 10 d, 0 to 100 scale, 0 no effect, 100 complete control
Description: as §1

[7] = tested on: corn (Zea mays); assay: Test A postemergence, corn; settings: visual rating after approx. 10 d, 0 to 100 scale, 0 no effect, 100 complete control
Description: as §1

[8] = tested on: kochia (Kochia scoparia); assay: Test A postemergence, kochia; settings: visual rating after approx. 10 d, 0 to 100 scale, 0 no effect, 100 complete control
Description: as §1

[9] = tested on: wheat (Triticum aestivum); assay: Test A postemergence, wheat; settings: visual rating after approx. 10 d, 0 to 100 scale, 0 no effect, 100 complete control
Description: as §1

[10] = tested on: blackgrass (Alopecurus myosuroides); assay: Test A postemergence, blackgrass; settings: visual rating after approx. 10 d, 0 to 100 scale, 0 no effect, 100 complete control
Description: as §1

[11] = tested on: barnyardgrass (Echinochloa crus-galli); assay: Test B flooded paddy test, barnyardgrass; settings: applied to paddy water at 2-leaf stage, 13 to 15 d, scale 0 no effect to 100 complete control
Description: as §2

[12] = tested on: barnyardgrass (Echinochloa crus-galli); assay: Test A postemergence, barnyardgrass; settings: visual rating after approx. 10 d, 0 to 100 scale, 0 no effect, 100 complete control
Description: as §1

[13] = tested on: ducksalad (Heteranthera limosa); assay: Test B flooded paddy test, ducksalad; settings: applied to paddy water at 2-leaf stage, 13 to 15 d, scale 0 no effect to 100 complete control
Description: as §2

[14] = tested on: ryegrass, Italian (Italian ryegrass, Lolium multiflorum); assay: Test A postemergence, Italian ryegrass; settings: visual rating after approx. 10 d, 0 to 100 scale, 0 no effect, 100 complete control
Description: as §1

[15] = tested on: ragweed (common ragweed, Ambrosia elatior); assay: Test A preemergence, ragweed; settings: visual rating after approx. 10 d, 0 to 100 scale, 0 no effect, 100 complete control
Description: as §1

[16] = tested on: ryegrass, Italian (Italian ryegrass, Lolium multiflorum); assay: Test A preemergence, Italian ryegrass; settings: visual rating after approx. 10 d, 0 to 100 scale, 0 no effect, 100 complete control
Description: as §1

[17] = tested on: kochia (Kochia scoparia); assay: Test A preemergence, kochia; settings: visual rating after approx. 10 d, 0 to 100 scale, 0 no effect, 100 complete control
Description: as §1

[18] = tested on: foxtail, giant (giant foxtail, Setaria faberii); assay: Test A preemergence, giant foxtail; settings: visual rating after approx. 10 d, 0 to 100 scale, 0 no effect, 100 complete control
Description: as §1

[19] = tested on: pigweed (Amaranthus retroflexus); assay: Test A preemergence, pigweed; settings: visual rating after approx. 10 d, 0 to 100 scale, 0 no effect, 100 complete control
Description: as §1

[20] = tested on: barnyardgrass (Echinochloa crus-galli); assay: Test A preemergence, barnyardgrass; settings: visual rating after approx. 10 d, 0 to 100 scale, 0 no effect, 100 complete control
Description: as §1

| SMILES | Plant response rating, Foxtail, Giant ([1]; 125 g ai/ha) | Plant response rating, Foxtail, Giant ([1]; 500 g ai/ha) | Plant response rating, Ragweed ([3]; 125 g ai/ha) | Plant response rating, Ragweed ([3]; 500 g ai/ha) | Plant response rating, Galium ([4]; 125 g ai/ha) | Plant response rating, Galium ([4]; 500 g ai/ha) | Plant response rating, Pigweed ([6]; 125 g ai/ha) | Plant response rating, Pigweed ([6]; 500 g ai/ha) | Plant response rating, Corn ([7]; 125 g ai/ha) | Plant response rating, Corn ([7]; 500 g ai/ha) | Plant response rating, Kochia ([8]; 125 g ai/ha) | Plant response rating, Kochia ([8]; 500 g ai/ha) | Plant response rating, Wheat ([9]; 125 g ai/ha) | Plant response rating, Wheat ([9]; 500 g ai/ha) | Plant response rating, Blackgrass ([10]; 125 g ai/ha) | Plant response rating, Blackgrass ([10]; 500 g ai/ha) | Plant response rating, Barnyardgrass ([12]; 125 g ai/ha) | Plant response rating, Barnyardgrass ([12]; 500 g ai/ha) | Plant response rating, Ryegrass, Italian ([14]; 125 g ai/ha) | Plant response rating, Ryegrass, Italian ([14]; 500 g ai/ha) | other results |
| --- | --- | --- | --- | --- | --- | --- | --- | --- | --- | --- | --- | --- | --- | --- | --- | --- | --- | --- | --- | --- | --- |
| CC1(C(=O)Nc2ccccc2C(F)(F)F)C(=O)OCC1c1ccc(F)cc1 (racemic) [Compound 21] | 0 | 0 | 0 | 40 | 0 | 30 | 0 | 0 | 0 | 0 | 0 | 0 | 0 | 0 | 0 | 30 | 0 | 30 | 0 | 0 | Plant response rating, Flood, Sedge, Umbrella ([2]; 250 g ai/ha): 0; Plant response rating, Flood, Rice ([5]; 250 g ai/ha): 30; Plant response rating, Flood, Barnyardgrass ([11]; 250 g ai/ha): 90; Plant response rating, Flood, Ducksalad ([13]; 250 g ai/ha): 90 |
| O=C(Nc1cccc(F)c1F)C1C(=O)OCC1c1cccc(C(F)(F)F)c1 (racemic) [Compound 12] | 30 | 70 | 0 | 0 | 0 | 0 | 0 | 0 | 0 | 0 | 0 | 0 | 0 | 0 | 0 | 0 | 40 | 40 | 0 | 0 | Plant response rating, Ragweed ([15]; 125 g ai/ha): 0; Plant response rating, Ragweed ([15]; 500 g ai/ha): 0; Plant response rating, Flood, Sedge, Umbrella ([2]; 500 g ai/ha): 0; Plant response rating, Ryegrass, Italian ([16]; 125 g ai/ha): 0; Plant response rating, Ryegrass, Italian ([16]; 500 g ai/ha): 20; Plant response rating, Kochia ([17]; 125 g ai/ha): 0; Plant response rating, Kochia ([17]; 500 g ai/ha): 20; Plant response rating, Flood, Rice ([5]; 500 g ai/ha): 0; Plant response rating, Foxtail, Giant ([18]; 125 g ai/ha): 30; Plant response rating, Foxtail, Giant ([18]; 500 g ai/ha): 60; Plant response rating, Pigweed ([19]; 125 g ai/ha): 0; Plant response rating, Pigweed ([19]; 500 g ai/ha): 0; Plant response rating, Flood, Barnyardgrass ([11]; 500 g ai/ha): 0; Plant response rating, Flood, Ducksalad ([13]; 500 g ai/ha): 0; Plant response rating, Barnyardgrass ([20]; 125 g ai/ha): 20; Plant response rating, Barnyardgrass ([20]; 500 g ai/ha): 30 |
| O=C(Nc1cccc(F)c1F)C1C(=O)OCC1c1ccc(F)c(C(F)(F)F)c1 (racemic) [Compound 15] | 30 | 70 | 0 | 0 | 0 | 20 | 0 | 0 | 0 | 20 | 0 | 0 | 0 | 20 | 0 | 20 | 30 | 70 | 0 | 20 | Plant response rating, Ragweed ([15]; 125 g ai/ha): 0; Plant response rating, Ragweed ([15]; 500 g ai/ha): 0; Plant response rating, Flood, Sedge, Umbrella ([2]; 500 g ai/ha): 0; Plant response rating, Ryegrass, Italian ([16]; 125 g ai/ha): 0; Plant response rating, Ryegrass, Italian ([16]; 500 g ai/ha): 40; Plant response rating, Kochia ([17]; 125 g ai/ha): 0; Plant response rating, Kochia ([17]; 500 g ai/ha): 0; Plant response rating, Flood, Rice ([5]; 500 g ai/ha): 0; Plant response rating, Foxtail, Giant ([18]; 125 g ai/ha): 70; Plant response rating, Foxtail, Giant ([18]; 500 g ai/ha): 90; Plant response rating, Pigweed ([19]; 125 g ai/ha): 0; Plant response rating, Pigweed ([19]; 500 g ai/ha): 0; Plant response rating, Flood, Barnyardgrass ([11]; 500 g ai/ha): 0; Plant response rating, Flood, Ducksalad ([13]; 500 g ai/ha): 0; Plant response rating, Barnyardgrass ([20]; 125 g ai/ha): 40; Plant response rating, Barnyardgrass ([20]; 500 g ai/ha): 70 |
| O=C(Nc1cccc(F)c1C(F)(F)F)C1C(=O)OCC1c1ccc(C(F)(F)F)cc1 (racemic) [Compound 10] | 30 | 70 | 0 | 0 | 0 | 0 | 0 | 0 | 0 | 0 | 0 | 0 | 0 | 0 | 0 | 0 | 0 | 0 | 0 | 0 | Plant response rating, Ragweed ([15]; 125 g ai/ha): 0; Plant response rating, Ragweed ([15]; 500 g ai/ha): 0; Plant response rating, Flood, Sedge, Umbrella ([2]; 250 g ai/ha): 0; Plant response rating, Flood, Sedge, Umbrella ([2]; 1000 g ai/ha): 0; Plant response rating, Ryegrass, Italian ([16]; 125 g ai/ha): 0; Plant response rating, Ryegrass, Italian ([16]; 500 g ai/ha): 0; Plant response rating, Kochia ([17]; 125 g ai/ha): 0; Plant response rating, Kochia ([17]; 500 g ai/ha): 0; Plant response rating, Flood, Rice ([5]; 250 g ai/ha): 0; Plant response rating, Flood, Rice ([5]; 1000 g ai/ha): 0; Plant response rating, Foxtail, Giant ([18]; 125 g ai/ha): 40; Plant response rating, Foxtail, Giant ([18]; 500 g ai/ha): 50; Plant response rating, Pigweed ([19]; 125 g ai/ha): 0; Plant response rating, Pigweed ([19]; 500 g ai/ha): 0; Plant response rating, Flood, Barnyardgrass ([11]; 250 g ai/ha): 0; Plant response rating, Flood, Barnyardgrass ([11]; 1000 g ai/ha): 0; Plant response rating, Flood, Ducksalad ([13]; 250 g ai/ha): 20; Plant response rating, Flood, Ducksalad ([13]; 1000 g ai/ha): 25; Plant response rating, Barnyardgrass ([20]; 125 g ai/ha): 0; Plant response rating, Barnyardgrass ([20]; 500 g ai/ha): 0 |
| CC1(C(=O)Nc2cccc(F)c2F)C(=O)OCC1c1ccc(F)cc1 (racemic) [Compound 22] | 60 | – | 0 | – | 20 | – | 0 | – | 0 | – | 0 | – | 0 | – | 0 | – | 90 | – | 20 | – | Plant response rating, Foxtail, Giant ([1]; 31 g ai/ha): 30; Plant response rating, Flood, Sedge, Umbrella ([2]; 250 g ai/ha): 0; Plant response rating, Ragweed ([3]; 31 g ai/ha): 0; Plant response rating, Galium ([4]; 31 g ai/ha): 0; Plant response rating, Flood, Rice ([5]; 250 g ai/ha): 20; Plant response rating, Pigweed ([6]; 31 g ai/ha): 0; Plant response rating, Corn ([7]; 31 g ai/ha): 0; Plant response rating, Kochia ([8]; 31 g ai/ha): 0; Plant response rating, Wheat ([9]; 31 g ai/ha): 0; Plant response rating, Blackgrass ([10]; 31 g ai/ha): 0; Plant response rating, Flood, Barnyardgrass ([11]; 250 g ai/ha): 0; Plant response rating, Barnyardgrass ([12]; 31 g ai/ha): 40; Plant response rating, Flood, Ducksalad ([13]; 250 g ai/ha): 0; Plant response rating, Ryegrass, Italian ([14]; 31 g ai/ha): 20 |
